# Test results taken from patent US6855730B2, “3-methylidenyl-2-indolinone modulators of protein kinase” (Sugen, Inc., priority 1998, dated 2005).
# Columns and labels:
# [1] = biological target: pyk2 (Homo sapiens, UniProt Q14289); assay: bio pyk2 assay; assay type: biochemical
# [2] = biological target: T1, PDGFR-β (Homo sapiens, UniProt P09619); assay: Biochemical PDGFR assay (ELISA, PDGFR-β expressing NIH 3T3 cell lysate); details: read-out: bio PDGF IC50
# T1 construct: host or cells: NIH 3T3
# T1 sequence (P09619 33-1106): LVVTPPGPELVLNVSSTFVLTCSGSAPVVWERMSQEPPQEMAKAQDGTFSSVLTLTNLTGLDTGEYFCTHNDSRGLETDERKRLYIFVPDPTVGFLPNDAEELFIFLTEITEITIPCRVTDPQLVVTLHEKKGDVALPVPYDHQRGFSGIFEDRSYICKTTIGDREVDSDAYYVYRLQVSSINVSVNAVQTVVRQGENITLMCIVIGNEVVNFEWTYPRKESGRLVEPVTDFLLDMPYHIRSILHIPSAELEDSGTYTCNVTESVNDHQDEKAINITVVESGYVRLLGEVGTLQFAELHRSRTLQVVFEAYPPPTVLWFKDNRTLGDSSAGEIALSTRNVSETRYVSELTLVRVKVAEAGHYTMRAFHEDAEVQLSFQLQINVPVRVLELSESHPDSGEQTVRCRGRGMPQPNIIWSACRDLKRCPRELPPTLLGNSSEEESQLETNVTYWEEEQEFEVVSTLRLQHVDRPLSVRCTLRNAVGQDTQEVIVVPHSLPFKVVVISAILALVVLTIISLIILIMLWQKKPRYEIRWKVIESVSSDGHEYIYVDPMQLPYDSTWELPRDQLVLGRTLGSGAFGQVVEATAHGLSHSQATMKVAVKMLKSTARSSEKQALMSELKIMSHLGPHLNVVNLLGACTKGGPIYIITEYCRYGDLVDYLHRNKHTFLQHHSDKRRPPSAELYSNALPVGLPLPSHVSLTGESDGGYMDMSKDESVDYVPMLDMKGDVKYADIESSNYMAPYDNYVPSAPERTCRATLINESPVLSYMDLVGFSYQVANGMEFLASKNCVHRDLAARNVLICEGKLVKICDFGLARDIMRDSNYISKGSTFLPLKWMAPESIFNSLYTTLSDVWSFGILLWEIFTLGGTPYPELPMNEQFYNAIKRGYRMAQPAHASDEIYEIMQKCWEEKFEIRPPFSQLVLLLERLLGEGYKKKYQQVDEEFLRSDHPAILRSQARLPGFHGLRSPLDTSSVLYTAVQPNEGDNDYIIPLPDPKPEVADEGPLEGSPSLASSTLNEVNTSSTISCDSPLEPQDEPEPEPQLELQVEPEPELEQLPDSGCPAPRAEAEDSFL
# Method in brief: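 Phosphorylation was read by ELISA (anti-phosphotyrosine serum, peroxidase secondary, ABTS at 410 nm) after a 30 min room-temperature reaction with 20 μM ATP, EDTA-stopped. Kinase was lysate-derived PDGFR-β (NIH 3T3) immobilised via 28D4C10 antibody, compound added 30 min before ATP.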
# [3] = biological target: Myc-GyrB-FGFR fusion protein (Homo sapiens, UniProt P11362); assay: Biochemical FGFR assay (ELISA); details: read-out: bio fgfR1 IC50
# Myc-GyrB-FGFR fusion protein, sequence (P11362 478-767 limits assumed): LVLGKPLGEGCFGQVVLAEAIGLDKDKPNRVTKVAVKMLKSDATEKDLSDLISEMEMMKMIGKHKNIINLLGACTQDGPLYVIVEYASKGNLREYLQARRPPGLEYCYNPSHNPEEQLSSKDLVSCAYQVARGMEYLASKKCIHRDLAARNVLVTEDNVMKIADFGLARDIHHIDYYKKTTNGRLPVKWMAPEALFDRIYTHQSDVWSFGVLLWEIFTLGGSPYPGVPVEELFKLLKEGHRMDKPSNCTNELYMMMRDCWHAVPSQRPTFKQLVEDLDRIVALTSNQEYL
# [4] = biological target: T2, flkGST (Homo sapiens, UniProt P35968); assay: bio flkGST assay; assay type: biochemical
# T2 construct: GST
# T2 sequence (P35968 786-1356 limits assumed): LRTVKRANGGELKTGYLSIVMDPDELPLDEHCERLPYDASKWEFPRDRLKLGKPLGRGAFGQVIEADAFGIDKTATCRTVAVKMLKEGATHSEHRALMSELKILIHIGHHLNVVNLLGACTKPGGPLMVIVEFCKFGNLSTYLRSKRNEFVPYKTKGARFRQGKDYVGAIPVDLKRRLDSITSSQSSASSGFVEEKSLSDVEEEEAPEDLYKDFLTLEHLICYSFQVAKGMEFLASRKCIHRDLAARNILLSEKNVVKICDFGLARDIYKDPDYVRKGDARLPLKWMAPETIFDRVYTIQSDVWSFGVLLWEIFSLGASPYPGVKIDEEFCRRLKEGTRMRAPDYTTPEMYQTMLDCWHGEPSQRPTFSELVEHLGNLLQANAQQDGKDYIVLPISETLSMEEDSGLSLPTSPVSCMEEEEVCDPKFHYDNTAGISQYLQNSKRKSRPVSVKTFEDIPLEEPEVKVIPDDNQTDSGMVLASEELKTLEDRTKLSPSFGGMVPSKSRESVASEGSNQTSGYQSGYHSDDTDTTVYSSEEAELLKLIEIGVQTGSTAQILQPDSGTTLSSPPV
# [5] = biological target: T3, human flk-1 (Homo sapiens, UniProt P35968); assay: Biochemical FLK-1 assay (flk-1 autophosphorylation ELISA); details: read-out: bio FLK1 IC50 (μM) % if inhibition at 100
# T3 construct: host or cells: Flk-1/NIH cells (NIH fibroblasts)
# T3 sequence (P35968 20-1356): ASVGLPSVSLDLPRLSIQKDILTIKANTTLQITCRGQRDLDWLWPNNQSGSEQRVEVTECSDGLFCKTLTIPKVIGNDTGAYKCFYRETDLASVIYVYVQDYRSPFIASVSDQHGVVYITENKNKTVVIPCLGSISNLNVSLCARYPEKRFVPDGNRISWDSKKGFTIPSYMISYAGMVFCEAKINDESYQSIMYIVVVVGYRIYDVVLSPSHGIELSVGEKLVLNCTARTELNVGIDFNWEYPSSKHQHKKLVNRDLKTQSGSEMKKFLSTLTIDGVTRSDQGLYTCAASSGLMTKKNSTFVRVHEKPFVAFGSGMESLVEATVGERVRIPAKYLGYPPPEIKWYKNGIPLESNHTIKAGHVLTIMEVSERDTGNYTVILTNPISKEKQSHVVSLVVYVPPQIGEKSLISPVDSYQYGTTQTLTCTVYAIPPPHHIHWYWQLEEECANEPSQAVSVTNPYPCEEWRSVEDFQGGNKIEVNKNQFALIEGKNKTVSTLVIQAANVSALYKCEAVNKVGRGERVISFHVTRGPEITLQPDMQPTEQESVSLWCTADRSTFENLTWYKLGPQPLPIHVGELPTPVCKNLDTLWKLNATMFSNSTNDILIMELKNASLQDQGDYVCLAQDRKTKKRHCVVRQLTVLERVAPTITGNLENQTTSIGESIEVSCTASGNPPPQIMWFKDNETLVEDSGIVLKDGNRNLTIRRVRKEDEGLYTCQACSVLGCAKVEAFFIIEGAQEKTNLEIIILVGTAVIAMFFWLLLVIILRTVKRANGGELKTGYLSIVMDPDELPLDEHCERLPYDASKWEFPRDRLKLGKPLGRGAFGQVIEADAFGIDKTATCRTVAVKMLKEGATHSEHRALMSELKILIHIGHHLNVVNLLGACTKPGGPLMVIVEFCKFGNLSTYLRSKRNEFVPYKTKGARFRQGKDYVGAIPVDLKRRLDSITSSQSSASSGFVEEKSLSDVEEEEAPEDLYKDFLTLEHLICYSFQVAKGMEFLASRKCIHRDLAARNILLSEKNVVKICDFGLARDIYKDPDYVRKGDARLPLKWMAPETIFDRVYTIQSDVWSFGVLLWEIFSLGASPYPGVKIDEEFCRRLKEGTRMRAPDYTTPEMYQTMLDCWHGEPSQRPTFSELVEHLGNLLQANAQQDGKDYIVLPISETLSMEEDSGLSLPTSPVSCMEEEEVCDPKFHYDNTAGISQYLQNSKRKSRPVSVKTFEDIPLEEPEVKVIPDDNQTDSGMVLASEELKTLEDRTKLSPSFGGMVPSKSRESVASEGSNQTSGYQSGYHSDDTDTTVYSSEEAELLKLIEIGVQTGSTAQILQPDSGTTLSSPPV
# Description: This assay evaluates flk-1 autophosphorylation activity in vitro using ELISA.
# Materials And Reagents • 1. 15 cm tissue culture dishes • 2. Flk-1/NIH cells: NIH fibroblast line over-expressing human flk-1clone 3 (SUGEN, Inc., obtained from MPI, Martinsried, Germany). • 3. Growth medium: DMEM plus heat inactivated 10% FBS and 2 mM Glutamine (Gibco-BRL). • 4. Starvation medium: DMEM plus 0.5% heat-inactivated FBS, 2 mM Glutamine (Gibco-BRL). • 5. […] L4 or E38 monoclonal antibody specific for flk-1, Purified by Protein-A agarose affinity chromatography (SUGEN, Inc.). • 7. PBS (Dulbecco's Phosphate-Buffered Saline) Gibco Cat. No. 450-1300EB). • 8. HNTG (see BIOCHEMICAL FGFR for preparation). • 9. Pierce BCA protein determination kit. • 10. Blocking buffer • 11. TBST (pH 7.0) • 12. Kinase Buffer • 13. Kinase Stop Solution: 200 mM EDTA. • 14. […] AB kit (Vector Laboratories Cat. No. PK 4000). • 16. DMSO • 17. NUNC 96-well V bottom polypropylene plates (Applied Scientific Cat. No. AS-72092). • 18. Turbo-TMB (Pierce). • 19. Turbo-TMB stop solution: 1 M H2SO4. • 20. ATP (Sigma Cat. No. A-7699). • 21. 20% DMSO in TBS (pH 7.0). Procedure
# Cell Growth and Lysate Preparation. • 1. Seed cell into growth medium and grow for 2-3 days to 90-100% confluency at 37° C. and 5% CO2.
# 2. Remove the medium and wash the cells twice with PBS. Lyse with HNTG lysis buffer. Collect all lysates and vortex mix them for 20-30 seconds. • 3. Remove insoluble material by centrifugation (5-10 min at about 10,000 ×g). • 4. Determine the protein concentration using BCA kit. • 5. Partition lysate into 1 mg aliquots, store at −80° C.
# Assay Procedure • 1. Coat Corning 96-well ELISA plates with 2 μg/well purified L4 (or E 38) in 100 μl of PBS. Store overnight at […] • 2. Remove unbound proteins from wells by inverting the plate to remove the liquid. Wash one time with dH2O, pat plate on paper towel to remove excess liquid. • 3. Block plates with 150 μl blocking buffer per well. Incubate for 45-60 minutes with shaking at 4° C. • 4. Remove the blocking buffer and wash the ELISA plate three times with dH2O and one time with TBST. Pat plate on paper towel to remove excess liquid. • 5. Dilute lysate in PBS to give final concentration of 50 μg/100 μl. Add 100 μl of diluted lysate to each well. Incubate with shaking at 4° C. overnight. • 6. Remove unbound proteins from wells by inverting the plate. Wash as in step 4. • 7. Add 80 μl of kinase buffer to wells (90 μl to negative control wells). • 8. Dilute test compounds (normally 10-fold) into wells of a polypropylene plate containing 20% DMSO in TBS. • 9. Add 10 μl of the diluted compounds to the ELISA wells containing immobilized flk-1 and shake. Control wells receive no compounds. • 10. From stock 1 mM ATP, prepare 0.3 mM ATP solution in dH2O (alternatively, kinase buffer may be used). • 11. Add 10 μl of 0.3 mM ATP to all wells except the negative controls. Incubate for 60 min. at room temperature with shaking. • 12. After 1 hr stop the kinase reaction by adding 11 μl 200 mM EDTA. Shake for 1-2 min. • 13. Wash the ELISA plate 4 times with dH2O and twice with TBST. • 14. Add 100 μl of 1:5000 biotinylated 4G10:TBST to all wells. Incubate 45 min with shaking at room temperature. • 15. While the above is incubating, add 50 μl of solutions A & B from the ABC kit to 10 ml of TBST. These solutions must be combined approximately 30 min prior to use. • 16. Wash plates as in step 4. • 17. Add 100 μl of the preformed A & B complex to all wells. Incubate 30 min with shaking at room temperature. • 18. Wash plates as in step 4. • 19. Add 100 μl turbo-TMB. Shake at room temperature for 10-15 min. • 20. When the color in the positive control wells reaches an absorbance of about 0.35-0.4, stop the reaction with 100 μl of turbo-TMB stop solution. • 21. Read plates on Dynatech MR7000 ELISA reader, test filter: 450 nM, reference filter: 410 nM.
# [6] = biological target: EGFR (Homo sapiens, UniProt P00533); assay: Biochemical EGFR assay (ELISA, A431 cell lysate); design: A431 cell lysate (Screening Lab, SUGEN, Inc.); host or cells: A431; details: read-out: bio EGFr IC50
# Method in brief: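 EGFR captured from A431 cell lysate onto anti-EGFR-coated plates, then incubated with test compound for 30 min at room temperature. Tyrosine phosphorylation with ATP/MnCl2 was stopped with EDTA after 5 min and detected by anti-phosphotyrosine ELISA with peroxidase/ABTS read-out.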
# pyk2, sequence (Q14289 whole entry, species assumed): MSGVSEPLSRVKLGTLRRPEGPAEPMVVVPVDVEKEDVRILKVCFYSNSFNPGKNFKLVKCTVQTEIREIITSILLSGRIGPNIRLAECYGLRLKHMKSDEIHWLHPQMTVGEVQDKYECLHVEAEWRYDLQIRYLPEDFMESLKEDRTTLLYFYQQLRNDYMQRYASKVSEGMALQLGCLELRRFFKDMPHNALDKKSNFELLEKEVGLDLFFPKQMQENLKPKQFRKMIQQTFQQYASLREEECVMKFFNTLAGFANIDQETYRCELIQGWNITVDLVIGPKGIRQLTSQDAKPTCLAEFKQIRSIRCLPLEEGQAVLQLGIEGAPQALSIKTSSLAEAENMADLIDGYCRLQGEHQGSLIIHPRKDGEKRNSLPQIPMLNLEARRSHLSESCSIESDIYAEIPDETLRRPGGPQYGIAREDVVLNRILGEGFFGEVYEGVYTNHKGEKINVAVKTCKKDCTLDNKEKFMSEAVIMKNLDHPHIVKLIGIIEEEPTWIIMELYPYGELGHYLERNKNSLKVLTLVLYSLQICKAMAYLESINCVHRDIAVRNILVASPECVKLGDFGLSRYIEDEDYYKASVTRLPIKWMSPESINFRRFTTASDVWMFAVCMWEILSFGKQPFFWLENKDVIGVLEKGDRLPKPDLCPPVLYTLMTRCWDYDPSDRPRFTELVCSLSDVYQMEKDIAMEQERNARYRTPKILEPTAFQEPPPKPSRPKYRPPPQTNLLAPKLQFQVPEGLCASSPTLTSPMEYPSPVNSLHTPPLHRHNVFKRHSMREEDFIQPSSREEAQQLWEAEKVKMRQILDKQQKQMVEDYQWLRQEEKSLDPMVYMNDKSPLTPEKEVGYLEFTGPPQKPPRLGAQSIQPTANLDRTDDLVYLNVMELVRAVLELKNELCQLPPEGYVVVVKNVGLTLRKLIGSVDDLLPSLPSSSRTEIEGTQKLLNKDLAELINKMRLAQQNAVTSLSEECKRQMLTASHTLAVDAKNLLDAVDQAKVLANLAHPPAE
SMILES,IC50 [1] [µM],IC50 [2] [µM],IC50 [3] [µM],IC50 [4] [µM],IC50 [5] [µM],IC50 [6] [µM]
"CN(C)S(=O)(=O)c1ccc2c(c1)/C(=C/c1ccc3[nH]ccc3c1)C(=O)N2 [Example 183, 3-(1H-Indol-5-ylmethylene)-2-oxo-2,3-dihydro-1H-indole-5-sulfonic acid dimethylamide]",> 100,> 100,7.68,1.55,,
"Cc1[nH]c2ccccc2c1/C=C1\C(=O)Nc2ccc(S(=O)(=O)N(C)C)cc21 [Example 184, 3-(2-Methyl-1H-indol-3-ylmethylene)-2-oxo-2,3-dihydro-1H-indole-5-sulfonic acid dimethylamide]",> 100,> 100,8.6,> 20,,
"CN(C)S(=O)(=O)c1ccc2c(c1)/C(=C/c1c[nH]c3ccccc13)C(=O)N2 [Example 188, 3-(1H-Indol-3-ylmethylene)-2-oxo-2,3-dihydro-1H-indole-5-sulfonic acid dimethylamide]",66.4,> 100,17.5,> 20,,
"Cc1[nH]c2ccccc2c1/C=C1\C(=O)Nc2ccc(S(N)(=O)=O)cc21 [Example 189, 3-(2-Methyl-1H-indol-3-ylmethylene)-2-oxo-2,3-dihydro-1H-indole-5-sulfonic acid amide]",> 100,> 100,> 20,> 20,,
"Cc1cccc2c1/C(=C/c1[nH]c3ccccc3c1C)C(=O)N2 [Example 170, 4-Methyl-3-(3-methyl-1H-indol-2-ylmethylene)-1,3-dihydroindol-2-one]",,> 100,> 20,,10.7,
"CN(C)S(=O)(=O)c1ccc2c(c1)/C(=C/c1cc3ccccc3[nH]1)C(=O)N2 [Example 186, 3-(1H-Indol-2-ylmethylene)-2-oxo-2,3-dihydro-1H-indole-5-sulfonic acid dimethylamide]",> 100,> 100,10.4,6.12,,
"Cc1c(/C=C2\C(=O)Nc3ccc(Br)cc32)[nH]c2ccccc12 [Example 169, 5-bromo-3-(3-methyl-1H-indol-2-ylmethylene)-1,3-dihydro-indol-2-one]",,> 100,> 20,,15.8,
"CNS(=O)(=O)c1ccc2c(c1)/C(=C/c1c[nH]c3ccccc13)C(=O)N2 [Example 178, 3-(1H-Indol-3-ylmethylene)-2-oxo-2,3-dihydro-1H-indole-5-sulfonic acid methylamide]",57.1,> 100,3.23,> 20,,
"CNS(=O)(=O)c1ccc2c(c1)/C(=C/c1c(C)[nH]c3ccccc13)C(=O)N2 [Compound 181, 3-(2-Methyl-1H-indol-3-ylmethylene)-2-oxo-2,3-dihydro-1H-indole 5-sulfonic acid methylamide]",> 100,> 100,5.74,12.5,,
"NS(=O)(=O)c1ccc2c(c1)/C(=C/c1ccc3[nH]ccc3c1)C(=O)N2 [Example 185, 3-(1H-Indol-5-ylmethylene)-2-oxo-2,3-dihydro-1H-indole-5-sulfonic acid amide]",> 100,> 100,9.43,3.39,,

# These reach a lower IC50 [2]. Values come first.
IC50 [1] [µM],IC50 [2] [µM],IC50 [3] [µM],IC50 [4] [µM],IC50 [5] [µM],IC50 [6] [µM],SMILES
66.1,79.2,0.75,2.08,,,"CNS(=O)(=O)c1ccc2c(c1)/C(=C/c1ccc3[nH]ccc3c1)C(=O)N2 [Example 176, 3-(1H-Indol-5-ylmethylene)-2-oxo-2,3-dihydro-1H-indole-5-sulfonic acid methylamide]"
5.02,5.26,0.77,2.66,,,"CNS(=O)(=O)c1ccc2c(c1)/C(=C/c1[nH]c3ccccc3c1CCCN(C)C)C(=O)N2 [Example 149, 3-[3-(3-Dimethylaminopropyl)-1H-indol-2-ylmethylene]-2-oxo-2,3-dihydro-1H-indole-5-sulfonic acid methylamide]"
5.53,55.4,0.73,1.51,,,"Cc1c(/C=C2\C(=O)Nc3ccc(S(N)(=O)=O)cc32)[nH]c2ccccc12 [Example 175, 3-(3-Methyl-1H-indol-2-ylmethylene)-2-oxo-2,3-dihydro-1H-indole-5-sulfonic acid amide]"
12.3,18,> 20,0.26,,,"CC(=O)c1ccc2c(c1)C(=Cc1cc3ccccc3[nH]1)C(=O)N2 [Example 158, 5-Acetyl-3-(1H-indol-2-ylmethylene)-1,3-dihydro-indol-2-one]"
2.77,27,,0.56,,,"CCOC(=O)c1c(C)[nH]c(/C=C2\C(=O)Nc3cccc(CCO)c32)c1CCCN1CCN(C)CC1 [Example 136, 5-[4-(2-Hydroxyethyl)-2-oxo-1,2-dihydroindol-3-ylidenemethyl]-2-methyl-4-[3-(4methylpiperazin-1-yl)-propyl]-1H-pyrrole-3-carboxylic acid ethyl ester]"
4.21,33.9,,13.9,,,"CCOC(=O)c1c(C)[nH]c(/C=C2\C(=O)Nc3ccc(S(N)(=O)=O)cc32)c1CCCN1CCN(C)CC1 [Example 124, 2-Methyl-4-[3-(4-methylpiperazin-1-yl)-propyl]-5-(2-oxo-5-sulfamoyl-1,2-dihydroindol-3ylidenemethyl)-1H-pyrrole-3-carboxylic acid ethyl ester]"
2.18,26.2,,17.6,,> 100,"CNS(=O)(=O)c1ccc2c(c1)/C(=C/c1[nH]c(C)c(C(=O)O)c1CCCN(C)C)C(=O)N2 [Example 138, 4-(3-Dimethylaminopropyl)-2-methyl-5-(5-methylsulfamoyl-2-oxo-1,2-dihydroindol-3-ylidenemethyl)-1H-pyrrole-3-carboxylic acid]"
> 10,6.17,,7.54,,> 100,CCOC(=O)c1c(C)[nH]c(/C=C2\C(=O)Nc3ccc(S(=O)(=O)NC)cc32)c1CCCN(C)C [Example 137]
